pIC50: −log10 of the molar value. “And” between values parts separate entries of the source, which are not always exact repeats. Equal entries are not always repeated.

The assay deals with T1, Steroid 17-alpha-hydroxylase/17,20 lyase (Rattus norvegicus, UniProt P11715).
T1 sequence (P11715 whole entry): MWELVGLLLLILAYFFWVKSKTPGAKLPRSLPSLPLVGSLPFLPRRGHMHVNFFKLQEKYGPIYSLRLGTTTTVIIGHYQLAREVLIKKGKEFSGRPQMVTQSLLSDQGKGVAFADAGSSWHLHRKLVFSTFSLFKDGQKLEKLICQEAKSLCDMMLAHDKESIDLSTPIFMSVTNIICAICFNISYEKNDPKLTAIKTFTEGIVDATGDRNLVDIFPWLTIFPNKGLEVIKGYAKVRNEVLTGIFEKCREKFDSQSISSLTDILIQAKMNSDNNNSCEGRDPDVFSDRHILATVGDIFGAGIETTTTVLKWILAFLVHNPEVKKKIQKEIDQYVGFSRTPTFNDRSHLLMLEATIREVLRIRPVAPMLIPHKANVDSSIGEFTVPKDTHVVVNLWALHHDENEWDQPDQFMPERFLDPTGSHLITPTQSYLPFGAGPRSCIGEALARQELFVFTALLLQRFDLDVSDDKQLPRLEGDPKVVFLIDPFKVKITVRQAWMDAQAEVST
Regarding `CCC1CCC(OC(=O)Cc2ccncc2)CC1` (stereo unspecified), the pIC50 was 5.57 and 5.70.

The molecule `CC(C)OC(=O)Cc1ccncc1` gave a pIC50 of under 4.00.

In the case of `CC(C)(C)C1CCC(OC(=O)Cc2ccncc2)CC1` (stereo unspecified), the pIC50 is 5.52 and 5.68.

As to `CC(C)(C(=O)OC1CCCCC1)c1ccncc1`, the pIC50 was 5.35 and 5.44.

Take `O=C(Cc1ccncc1)OC12CC3CC(CC(C3)C1)C2`: the pIC50 is 6.21 and 6.25.

For `CC(C)CC(C)OC(=O)Cc1ccncc1` (stereo unspecified), the pIC50 was 4.77 and 4.89.

For the molecule `CC1CCC(OC(=O)Cc2ccncc2)C1` (stereo unspecified), the pIC50 was 4.49 and 4.55.

`CC1(OC(=O)Cc2ccncc2)CCCCC1`: the negative-log IC50 (pIC50) was 4.96 and 5.00.

Turning to `O=C(Cc1ccncc1)OC1CCCC1`, the pIC50 was 3.88 and 4.11.

The molecule `O=C(Cc1ccncc1)Oc1ccccc1` showed a pIC50 of under 4.00.

`CC(C)CCOC(=O)Cc1ccncc1` showed a pIC50 of under 4.00.

Consider `CC1(C)C2CCC1(C)C(OC(=O)Cc1ccncc1)C2` (single isomer, unassigned; (-)), for which the pIC50 was 5.66 and 5.82.

In the case of `CC1CCC(OC(=O)Cc2ccncc2)CC1` (stereo in doubt; 6), the negative logarithm of the IC50 (pIC50) was 4.44 and 4.60.

`CC1CCC(C(C)C)C(OC(=O)Cc2ccncc2)C1` (stereo in doubt; 12): the pIC50 was 5.29 and 5.35.

Turning to `CC1CCC(C(C)C)C(OC(=O)Cc2ccncc2)C1` (stereo in doubt; 13), the pIC50 was 4.82 and 4.92.

Turning to `O=C(Cc1ccncc1)OC1=CC2CCC1C2` (stereo in doubt; 14), the pIC50 is 4.39 and 4.51.

On to `O=C(Cc1ccncc1)OC1=CC2CCC1C2` (stereo in doubt; 15), for which the pIC50 was 4.34 and 4.35.

In the case of `CC1(C)C2CCC1(C)C(OC(=O)Cc1ccncc1)C2` (stereo in doubt; 17), the negative logarithm of the IC50 (pIC50) was 6.27 and 6.23.

With `CC1C(OC(=O)Cc2ccncc2)CC2CC1C2(C)C` (stereo in doubt; 18), the pIC50 is 6.55 and 6.59.

Consider `CC1C(OC(=O)Cc2ccncc2)CC2CC1C2(C)C` (stereo in doubt; 19), for which the pIC50 was 5.74 and 5.77.

In the case of `CC1CCC(OC(=O)Cc2ccncc2)CC1` (trans isomer), the pIC50 is 5.36 and 5.38.

For orientation: pIC50 means the IC50 on a negative log10 scale, so that one unit is a factor of ten. Read a high pIC50 as a low IC50.
